Results: publication PMC8079033, “Design, synthesis, anticancer evaluation, and molecular modelling studies of novel tolmetin derivatives as potential VEGFR-2 inhibitors and apoptosis inducers” (Journal of Enzyme Inhibition and Medicinal Chemistry, 2021)

Tests used:
VEGFR-2 (KDR) = biological target: T1, VEGFR-2 (KDR) (Homo sapiens, UniProt P35968); assay: VEGFR-2 (KDR) Kinase Assay Kit (Kinase-Glo Max luminescence); type: biochemical; conditions: mean ± SD of three experiments
T1 construct: purchased 40325
Procedure: In brief, the master mixture (25 µl per well) was prepared and added to each well. 5 µl of inhibitor solution of each well labelled as “Test Inhibitor” was added. For the “Positive Control” and “Blank,” 5 µl of the same solution without inhibitor (Inhibitor buffer) was added. 3 ml of kinase buffer was prepared by mixing 600 µl of kinase buffer with 2400 µl water. To the wells designated as “Blank,” 20 µl of kinase buffer was added. The amount of VEGFR-2 required for the assay was calculated and the enzyme was diluted to 1 ng/µl with kinase buffer. The reaction was initiated by adding 20 µl of diluted VEGFR-2 enzyme to the wells designated “Positive Control” and “Test Inhibitor Control.” The mixtures were incubated at 30 °C for 45 min. After the 45 min, 50 µl of Kinase-Glo Max reagent was added to each well. The plate was incubated at room temperature for 15 min. Luminescence was measured using the microplate reader.

HUVECs = assay: Wound healing assay (CytoSelect 24-well); type: cell-based, human; conditions: 72 h, 5b 2.4 µM, sunitinib 3.2 µM, control 97.03 ± 5.47
Procedure: Wound healing assay of compound 5b was evaluated using CytoSelect™ 24-Well Wound Healing Assay kit Catalog # CBA-120 according to manufacturer’s instructions. In brief, the 24-well plate wound healing inserts were allowed to warm up at room temperature for 10 minutes, then to each well, 500 µl of human umbilical vascular endothelial cells (HUVECs) suspension (1.0 × 10^6) in media containing 10% fetal bovine serum (FBS) was added. Cells were kept in a cell culture incubator until a monolayer form. Carefully the insert was removed from the well. The media were slowly aspirated and discarded from the wells. The wells were washed with media to remove dead cells and debris. Finally, the media were added to wells to keep cells hydrated, then wells were visualized under a light microscope. […] The percent closure of the cells into the wound field was measured.
One of the hallmarks of angiogenesis is cell migration, which happens in the earlier stages of the angiogenic cascade. A wound-healing assay was performed to investigate in vitro anti-angiogenic property of compound 5b.

HCT-15 cells [1] = assay: Cell cycle analysis by flow cytometry (PI); type: cell-based, human
Procedure: After treatment, the cells were washed twice with ice-cold phosphate buffer saline (PBS), collected by centrifugation, and fixed in ice-cold 70% (v/v) ethanol, washed with PBS, resuspended with 0.1 mg/ml RNase, stained with […] propidium iodide (PI), and analysed by flow cytometry using FACS Calibur (Becton Dickinson)[45]. The cell cycle distributions were calculated using Cell- Quest software (Becton Dickinson).
Anticancer agents exert their cytotoxic action by aborting cellular proliferation at certain checkpoints. These checkpoints are distinguishable phases in the cell cycle, whose suppression results in the termination of the cell proliferation. Cell cycle analysis employs flow cytometry to distinguish cells within the different cell cycle phases. […] Moreover, marked augmentation in the proportion of cells in the G0-G1 phase by 1.32-fold, and in the Sub-G1 phase by 18.7-fold, in comparison to the control (DMSO).

HCT-15 cells [2] = assay: Annexin V-FITC/PI apoptosis assay; type: cell-based, human
Procedure: Apoptosis was determined by staining the cells with Annexin V fluorescein isothiocyanate (FITC) and counterstaining with PI using the Annexin V-FITC/PI apoptosis detection kit (BD Biosciences, San Diego, CA) according to the manufacturer’s instructions. […] The cells then were collected by trypsinization and 0.5 × 10^6 cells were washed twice with PBS and stained with 5 µl Annexin V-FITC and 5 µl PI in 1 × binding buffer for 15 min at room temperature in the dark. Analyses were performed using FACS Calibur flow cytometer (BD Biosciences, San Jose, CA).
This clearly verifies that, cell death resulting from the antiproliferative action of the target tolmetin derivative 5b was attributable to physiological apoptosis.

caspase-3 = assay: Caspase-3 (active) ELISA in HCT-15 cells; type: cell-based, human
Procedure: The level of the apoptotic marker caspase-3 was assessed using Human Caspase-3 (active) ELISA Kit Catalog # KHO1091. The procedure of the used kit was done according to the manufacturer’s instructions. Allow all reagents to reach room temperature before use. Gently mix all liquid reagents prior to use. Add 100 µl of the standard diluent buffer to the zero standard wells. Add 100 µl of standards and controls or diluted samples to the appropriate microtiter wells. Incubate for 2 h at room temperature. […] Incubate for 1 h at room temperature. Add 100 µl anti-rabbit IgG HRP working solution to each well. Prepare the working dilution and incubate for 30 min at room temperature. Add 100 µl of stabilised chromogen to each well. The liquid in the wells will begin to turn blue. Incubate for 30 min at room temperature and in the dark. Add 100 µl of stop solution to each well. The solution in the wells should change from blue to yellow. Read the absorbance of each well at 450 nm. Read the plate within 2 h after adding the stop solution. Use a curve fitting software to generate the standard curve. Read the concentrations for unknown samples and controls from the standard curve.
(§1) The activation of caspases as caspase-3, caspase-8, and caspase-9 is responsible for apoptosis, particularly caspase-3 which is an effector caspase that has an important role in apoptosis. It is activated by one of the initiator caspases which results in the activation of certain enzymes responsible for the fragmentation of DNA[53]. Caspase-8 and -9 are initiator caspases that are responsible for caspase-3 activation.

caspase-8 = assay: Caspase-8 ELISA in HCT-15 cells; type: cell-based, human
Procedure: (§2) To measure caspase-8 and caspase-9 levels, DRG® Caspase-8 (human) (EIA-4863) ELISA and DRG® Caspase-9 (human) (EIA-4860) ELISA kits were used. Briefly, prepare cell extracts after induction of apoptosis. Resuspend the extracts in lysis buffer, incubate 60 min at room temperature, and centrifuge for 15 min. Wash the microwell strips with 400 µl wash buffer. Add 100 µl of sample diluent in duplicate to all standard wells. Add 100 µl of sample diluent in duplicate to the blank wells. Add 50 µl of sample diluent to the sample wells. Add 50 µl of each sample in duplicate to the sample wells. Add 50 µl of detection antibody to all wells and incubate at room temperature for 2 h. Add 100 µl of diluted anti-rabbit-IgG-HRP to all wells, including the blank wells. Pipette 100 µl of (3,3′,5,5′-Tetramethylbenzidine) TMB substrate solution to all wells and incubate at room temperature for about 15 min. Stop the enzyme reaction by pipetting 100 µl of stop solution into each well. Read absorbance of each microwell on a spectro-photometer using 450 nm. Determine the absorbance of both the samples and the standards.
as §1

caspase-9 = assay: Caspase-9 ELISA in HCT-15 cells; type: cell-based, human
Procedure: as §2, §1

T1 sequence (P35968 20-1356): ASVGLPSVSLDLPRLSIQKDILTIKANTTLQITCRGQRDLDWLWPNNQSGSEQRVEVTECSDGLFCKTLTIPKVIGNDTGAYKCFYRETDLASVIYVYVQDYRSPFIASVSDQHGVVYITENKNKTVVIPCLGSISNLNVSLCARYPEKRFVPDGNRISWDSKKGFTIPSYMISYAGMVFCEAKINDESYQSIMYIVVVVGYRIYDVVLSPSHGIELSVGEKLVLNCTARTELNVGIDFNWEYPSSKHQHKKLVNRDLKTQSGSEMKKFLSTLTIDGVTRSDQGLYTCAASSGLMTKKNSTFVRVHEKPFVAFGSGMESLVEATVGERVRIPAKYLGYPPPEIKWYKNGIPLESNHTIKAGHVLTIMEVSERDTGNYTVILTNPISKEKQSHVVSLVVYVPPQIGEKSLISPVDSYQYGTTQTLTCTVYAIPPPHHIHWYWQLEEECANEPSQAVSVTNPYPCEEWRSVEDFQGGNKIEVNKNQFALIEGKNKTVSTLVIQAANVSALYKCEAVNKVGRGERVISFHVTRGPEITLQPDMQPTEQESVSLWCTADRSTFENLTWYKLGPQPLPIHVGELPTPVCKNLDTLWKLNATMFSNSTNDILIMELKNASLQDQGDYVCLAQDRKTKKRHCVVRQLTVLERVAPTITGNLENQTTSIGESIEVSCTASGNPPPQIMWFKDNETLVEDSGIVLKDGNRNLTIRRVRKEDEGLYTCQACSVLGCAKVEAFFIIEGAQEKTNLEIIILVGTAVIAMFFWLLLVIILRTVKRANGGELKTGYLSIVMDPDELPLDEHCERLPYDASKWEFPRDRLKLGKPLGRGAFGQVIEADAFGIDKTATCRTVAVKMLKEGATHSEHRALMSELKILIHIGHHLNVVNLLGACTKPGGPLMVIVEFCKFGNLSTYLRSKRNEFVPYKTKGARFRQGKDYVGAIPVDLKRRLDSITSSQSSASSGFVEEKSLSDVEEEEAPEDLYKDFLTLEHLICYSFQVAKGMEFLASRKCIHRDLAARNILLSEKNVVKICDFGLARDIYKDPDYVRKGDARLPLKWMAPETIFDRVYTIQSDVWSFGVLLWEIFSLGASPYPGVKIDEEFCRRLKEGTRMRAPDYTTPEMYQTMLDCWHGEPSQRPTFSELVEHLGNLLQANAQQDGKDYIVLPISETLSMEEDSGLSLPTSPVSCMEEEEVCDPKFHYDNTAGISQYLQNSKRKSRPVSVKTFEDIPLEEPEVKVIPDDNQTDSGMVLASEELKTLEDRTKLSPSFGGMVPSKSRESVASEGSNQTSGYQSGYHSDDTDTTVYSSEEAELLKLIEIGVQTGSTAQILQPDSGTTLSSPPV

Cc1ccc(C(=O)c2ccc(CC(=O)NN=Cc3cccc(O)c3O)n2C)cc1 [Compound 5b, N′-(2,3-Dihydroxybenzylidene)-2–(1-methyl-5–(4-methylbenzoyl)-1H-pyrrol-2-yl) acetohydrazide]
IC50 (VEGFR-2 (KDR)): 200 ± 20 nM | Wound closure percentage (HUVECs): 51.85 ± 2.92% | augmentation in the proportion of cells in the G0-G1 phase (HCT-15 cells [1]; 6.62 µM, vs control (DMSO)): 1.32 fold | decline in the cell population at the G2/M phase (HCT-15 cells [1]; 6.62 µM, vs control (DMSO)): 65.61% | decline in the cell population at the S phase (HCT-15 cells [1]; 6.62 µM, vs control (DMSO)): 16.88% | %Pre-G1 (HCT-15 cells [1]; IC50 concentration (6.62 µM), 24 h, control 1.46): 37.29% | %G2/M (HCT-15 cells [1]; IC50 concentration (6.62 µM), 24 h, control 6.95): 2.39% | %G0–G1 (HCT-15 cells [1]; IC50 concentration (6.62 µM), 24 h, control 41.69): 54.92% | %S (HCT-15 cells [1]; IC50 concentration (6.62 µM), 24 h, control 51.36): 42.69% | Apoptosis Late (HCT-15 cells [2]; IC50 concentration, 24 h, control 0.13): 22.12% | Apoptosis Early (HCT-15 cells [2]; IC50 concentration, 24 h, control 0.34): 2.66% | Apoptosis Total (HCT-15 cells [2]; IC50 concentration, 24 h, control 0.47): 24.78% | Necrosis (HCT-15 cells [2]; IC50 concentration, 24 h, control 0.99): 12.51% | increase in the total apoptosis percentage (HCT-15 cells [2]; vs control (DMSO)): 52.72 fold | Caspase-3 (caspase-3; mean ± SD of three experiments, control 0.073 ± 0.01): 0.570 ± 0.01 ng/mL | increase in the level of caspase-3 (caspase-3; vs control): 7.808 fold | Caspase-8 (caspase-8; mean ± SD of three experiments, control 0.377 ± 0.03): 0.704 ± 0.06 ng/mL | increase in the level of caspase-8 (caspase-8; vs control): 1.867 fold | Caspase-9 (caspase-9; mean ± SD of three experiments, control 3.225 ± 0.44): 24.58 ± 0.82 ng/mL | increase in the level of caspase-9 (caspase-9; vs control): 7.622 fold
